Reference: US6642365B1, “Anti-(retro)viral conjugates of saccharides and acetamidino or guanidino compounds” (Yeda Research and Development Co. Ltd., priority 2001, dated 2003)
Entries after “also recorded” stand apart in the source; their conditions may differ.

Legend:
[1] = system: TAR RNA; assay: L-arginine-Amberlite affinity column elution of TAR RNA; type: binding, HIV-1; conditions: concentration that elutes 50% of TAR RNA from L-arginine-Amberlite affinity column
Procedure: The model Tat peptide (R52: […]) was prepared by the Weizmann Institute Chemical Services and was purified by reverse phase HPLC (C-18) (Lapidot et al., 1995). […] The RNA was transcriptionally labeled with α-^32P UTP, purified on a 12% polyacrylamide/7M urea gel (19:1 acrylamide:bis-acrylamide) and was eluted from the gel by 0.5M ammonium acetate, 10 mM magnesium acetate, 1 mM EDTA and 0.1% SDS. The sample was subjected to phenol extraction and the RNA was precipitated from 70% ethanol. Purified RNA was dissolved in diethyl pyrocarbonate-treated water (DEPC water), its concentration was determined by UV absorption at 260 nm and the specific radioactivity was determined by scintillation counting on a LS 1701 “Bruker” counter.
The L-arginine-Amberlite resin was prepared as follows: Carboxyl groups of Amberlite IRC-50 resin were covalently modified with ethanolamine using 1-(3-dimethylaminopropyl) 3-ethylcarbodiimide, a water-soluble coupler. The hydroxy ethyleneamide resin obtained was washed and dried, and L-arginine (12-16 μmols per ml of resin) was coupled to the hydroxy groups of the resin via an isourea moiety using a standard cyanogen bromide protocol. The final concentration of arginine residues was 12-16 μmol per ml of resin. The swollen L-arginino-Amberlite resin (200 μl) was packed into a plastic mini-column and equilibrated with buffer containing 40 mM Tris HCl, pH 7.5, 250 mM NaCl, 0.5 mM EDTA and 5 mM MgCl2 (buffer A). Approximately 1 ng of ^32P-UTP labeled TAR RNA in buffer A was loaded on the column. The column was eluted 3 to 5 times with 400 μl portions of buffer A, until no radioactivity was detected in the eluent. […] Each of the test compounds was dissolved in buffer A and passed through the column in 300 μl portions. Radioactivity of the eluates was determined by scintillation counting on a LS 1701 “Bruker” counter. CE50 values, the concentrations of inhibitors eluting 50% of the radioactive material from the column, were determined.

[2] = system: rG15, rG15-rC15 duplex and truncated TAR RNA sequences; assay: Gel-shift binding to short RNA oligonucleotides (specificity); conditions: micromolar concentration range; data not shown
[3] = system: equine infectious anemia virus (EIAV); assay: Antiviral activity in EIAV-infected ED fibroblasts; type: cell-based; conditions: for EIAV replication in ED cells (FIG. 8): R3G at 12.5 and 25 μM, R4K at 50 and 100 μM, 10 pfu per cell
Procedure: Both equine dermal fibroblasts (ED) and Equine Infectious Anemia Virus (EIAV), Wyoming isolate (Malmquist et al., 1973) were gifts from Profs. A. Yaniv and A. Gazit, from the Sackler Medical School of the Tel-Aviv University, Israel. ED cells were plated on plastic 6-well tissue culture plates (Nunclone) at density of […] per well in 2 ml of DMEM/10% FCS (fetal calf serum). The medium was removed after 12-20 hours and the cells were inoculated for 2 hours with 0.5 ml DMEM/10% FCS containing 5×10^6 pfu (plaque forming units) of EIAV and 10 μg/ml of polybrene (hexadimetrine bromide, Sigma) (Carpenter and Chesebro, 1989). Following the incubation, another 2.5 ml of DMEM/10% FCS was added to each well. […] Every […], 1.2 ml samples of the medium were collected and replaced with same amount of medium, containing radioactive uridine and the tested. The samples were clarified from cell debris by spinning at 12000 rpm for 5 minutes on the Eppendorf centrifuge. Viral particles from the clarified supernatants were collected by ultracentrifugation at 75000 rpm, 4° C. on the Beckman TL 100 centrifuge using TLA 100.2 rotor (Cheevers et al., 1977). The supernatants were carefully discarded and the pellet was resuspended in 200 μl of 1% SDS/5% Tritone X-100, mixed with 1 ml Ultima Gold scintillation liquid (Packard) and counted on LS 1701 Bruker scintillation counter. Typical duration of the experiment was 15 days; EIAV growth curves in the presence of various concentrations of the conjugates in the medium were obtained. Development of the cytopathic effect (cpe) in the infected ED cells was monitored by light microscopy.
Equine infectious anemia virus (EIAV) of Wyoming strain is adapted to grow in equine dermal fibroblasts (ED), without damaging them with a titer of 1 μfu per cell (Malmquist virus). […] In the absence of inhibitors, EIAV proliferated in the ED cells reaching a plato 9-12 days after infection (FIG. 8). […] Development of cpe started 10-12 days after infection, reaching a maximum on days 15-17, followed by rapid cell death and exfoliation from the plastic bottom of the well.

[4] = system: R5 strain Ba-L; assay: Virus-binding assay, MT-4 cells; type: cell-based, HIV-1; conditions: dose dependent; data not shown
Procedure: MT4 cells (5×10^5) were incubated with supernatant containing 1×10^5 pg of p24 antigen of wild type HIV-1 in the presence of different concentrations of the test compound. One hour after infection, cells were washed 3 times with PBS and p24 antigen bound to the cells was determined by a commercial ELISA test (Coulter, Spain).

[5] = target: T1, CXCR4 (Homo sapiens, UniProt P61073); conditions: SDF-1α 20 ng/ml
[6] = target: T1, CXCR4; assay: Inhibition of anti-CXCR4 mAb (12G5) binding, flow cytometry, PHA-activated PBMC; design: endogenous in cells; conditions: for IC50: read-out: IC50-12G5 PMBC
Procedure: Measurement of chemokine receptors CXCR4, CCR5 and the CD4 receptor on phytohemagglutinin (PHA)-activated PBMC was performed by flow cytometry analysis. Briefly, 0.5×10^6 cells were washed in ice-cold phosphate-buffered saline (PBS) and incubated for 30 minutes at 4÷C. with fluorescent labelled mAb 12G5 and 2D7 and Leu3a (Becton Dickinson, San Jose, Calif.) or with isotype control mAbs in the presence or absence of the test compound. Then, the cells were washed with ice-cold PBS and were fixed in PBS containing 1% formaldehyde. For each sample, 10,000 events were analysed in a FACScalibur™ system (Becton Dickinson). Data were acquired and analysed with CellQuest™ software (Becton Dickinson).

[7] = target: CCR5 (Homo sapiens, UniProt P51681); assay: RANTES-induced intracellular calcium signal in THP-1, CCR5+ cells; conditions: data not shown
Chain of CCR5 (P51681 whole entry): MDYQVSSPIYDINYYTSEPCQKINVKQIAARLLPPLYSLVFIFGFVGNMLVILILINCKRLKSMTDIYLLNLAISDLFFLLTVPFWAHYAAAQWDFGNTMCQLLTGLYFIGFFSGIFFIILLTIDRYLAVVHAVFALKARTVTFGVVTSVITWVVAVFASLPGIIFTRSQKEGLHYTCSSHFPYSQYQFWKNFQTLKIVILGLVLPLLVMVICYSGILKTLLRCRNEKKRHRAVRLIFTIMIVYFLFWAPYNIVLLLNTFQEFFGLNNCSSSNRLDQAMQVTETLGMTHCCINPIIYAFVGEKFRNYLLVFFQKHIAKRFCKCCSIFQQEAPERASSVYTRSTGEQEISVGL

T1 sequence (P61073 whole entry): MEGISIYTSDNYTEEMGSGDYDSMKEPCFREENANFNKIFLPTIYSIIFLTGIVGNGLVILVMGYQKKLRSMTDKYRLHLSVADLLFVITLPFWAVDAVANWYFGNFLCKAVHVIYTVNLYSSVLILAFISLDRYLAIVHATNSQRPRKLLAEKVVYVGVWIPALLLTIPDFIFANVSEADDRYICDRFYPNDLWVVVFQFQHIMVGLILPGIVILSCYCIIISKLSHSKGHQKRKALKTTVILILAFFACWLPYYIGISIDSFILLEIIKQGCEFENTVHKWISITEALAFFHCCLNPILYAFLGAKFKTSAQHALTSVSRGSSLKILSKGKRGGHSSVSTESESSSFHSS

With `N=C(N)NCCCC(N)C(=O)NCC1OC(OC2C(NC(=O)C(N)CCCNC(=N)N)CC(NC(=O)C(N)CCCNC(=N)N)C(OC3OC(CO)C(O)C(NC(=O)C(N)CCCNC(=N)N)C3O)C2O)C(O)C(O)C1O` (stereo not drawn) [R4K, Tetraargininamido-kanamycin A conjugate] the CE50 [1] was 2.5 mM, the “binding to short RNA oligonucleotides” value [2] was “did not display any binding” and the “EIAV replication in ED cells (FIG. 8)” value [3] was “inhibited the viral growth”. For the same compound, the “binding of the R5 strain Ba-L to MT-4 cells” value [4] was “inhibited the binding”, the “SDF-1α-dependent Ca2+ signal” value [5] was “inhibited; also recorded: blocked” and the IC50 [6] was 2200 nM. For the same compound, the “intracellular Ca2+ signal induced by RANTES” value [7] was “did not inhibit”.
“Triargininamido-gentamicin conjugate [R3G]” was tested, and the CE50 [1] was 1.4 mM, the “binding to short RNA oligonucleotides” value [2] was “did not display any binding” and the “phenotype of EIAV-infected ED cells” value ([3]; 25 μM, day 13-15) was “preserved normal fibroblast phenotype”. The “inhibition of cpe development” value ([3]; 25 and 50 μM, after 13-15 days) was “noticeable inhibition of the cpe development”, the “EIAV replication in ED cells (FIG. 8)” value [3] was “inhibited the viral growth” and the “viral titer compared to control” value ([3]; added during cpe onset (day 12-13), read at day 15) was “decreased at least twice”. The “binding of the R5 strain Ba-L to MT-4 cells” value [4] was “inhibited the binding”, the “SDF-1α-dependent Ca2+ signal” value [5] was “inhibited; also recorded: blocked” and the “binding of 12G5 mAb to PHA-activated PBMC” value ([6]; 5 μM) was “suppressed”. For the same compound, the IC50 [6] was 2700 nM and the “intracellular Ca2+ signal induced by RANTES” value [7] was “did not inhibit”.
